In US20250064777A1, “PHARMACEUTICAL COMPOSITION FOR TREATMENT OF CASTRATION-RESISTANT PROSTATE CANCER COMPRISING BRUCEANTIN AND NANOPARTICLES” (SAMSUNG LIFE PUBLIC WELFARE FOUNDATION, priority 2021, published 2025):
Read-outs that look alike come from different tables or passages of the source.

Assays:
[1] = Solubility of nano-bruceantin in aqueous solution (visual examination, UV-Vis spectroscopy); type: physicochemical
nude mice [2] = assay: Short-term toxicity of bruceantin and nano-bruceantin; type: in vivo; conditions: 5 mg/kg daily for 7 days, FIG. 3
Protocol: (§1) As Experimental Animals, 6-Week-Old Male Nude Mice (Orient Bio, Korea) were used.
Mice were divided into a nanoparticle-administered group (nano-Veh), a phosphate buffer saline-administered group (PBS), a nano-bruceantin-administered group (nano-BCT), and a bruceantin-administered group (free-BCT). The nano-BCT group was orally administered nano-bruceantin at 5 mg/kg daily for 7 days, and the free-BCT group was orally administered bruceantin at 5 mg/kg daily for 7 days.

nude mice [3] = assay: Long-term toxicity of bruceantin and nano-bruceantin; type: in vivo; conditions: 2 mg/kg every two days for 17 days, FIG. 4
Protocol: as §1
The nano-BCT group was orally administered nano-bruceantin at 2 mg/kg every two days for 17 days, and the free-BCT group was orally administered bruceantin at 2 mg/kg every two days for 17 days.

22RV1 cells [4] = assay: Cell growth inhibition assay; type: cell-based; conditions: concentration of 10 nM or more, FIG. 5
Protocol: (§2) Castration-resistant prostate cancer cell line 22RV1 cells were cultured with RPMI-1640 (Welgene) medium containing 10% fetal bovine serum (FBS) (Welgene) and 1% penicillin/streptomycin.
(§3) Castration-resistant prostate cancer cell line 22RV1 cells were treated with various concentrations of each of bruceantin (BCT), nano-bruceantin 1 (nano-BCT #1), and nano-bruceantin 2 (nano-BCT #2) and subjected to cell growth inhibition assay and colony formation assay. Reporter gene assay was performed by transfecting 22RV1 cells with an MMTV-LUC reporter, which can measure the transcriptional activities of AR and AR-V7, and treating the cells with various concentrations of each of BCT, nano-BCT #1, and nano-BCT #2 depending on the presence or absence of the androgen dihydrotestosterone (DHT) (DHT+, AR transcriptional activity measurement condition; DHT−, AR-V7 transcriptional activity measurement condition). Immunoblotting was performed by treating 22RV1 cells with various concentrations of each of BCT and nano-BCT, extracting protein from the cells, electrophoresise protein on 4 to 12% SDS-PAGE gel, and transferring the electrophoresed protein to a PVDF membrane, followed by incubation with antibody.

22RV1 cells [5] = assay: Colony formation assay; type: cell-based; conditions: various concentrations, FIG. 6
Protocol: as §2, §3

AR [6] = assay: MMTV-LUC reporter gene assay, DHT+ (AR transcriptional activity); type: cell-based; conditions: 22RV1 cells, FIG. 7
Protocol: as §2, §3

AR-V7 [7] = assay: MMTV-LUC reporter gene assay, DHT− (AR-V7 transcriptional activity); type: cell-based; conditions: 22RV1 cells, FIG. 7
Protocol: as §2, §3

AR [8] = assay: Immunoblotting for AR in 22RV1 cells; type: cell-based; conditions: various concentrations, FIG. 8
Protocol: as §2, §3

AR-V7 [9] = assay: Immunoblotting for AR-V7 in 22RV1 cells; type: cell-based; conditions: various concentrations, FIG. 8
Protocol: as §2, §3

CWR22RV1 = CWR22RV1 xenograft mice: tumor volume and bioluminescence; type: in vivo; conditions: oral, 2 mg/kg every two days for 19 days
Protocol: Castration-resistant prostate cancer cell line CWR22RV1 was purchased from ATCC (USA), and xenograft mice were constructed by subcutaneously injecting CWR22RV1 into nude mice.
The xenograft mice were divided into a nanoparticle-treated group (nano-Veh), a control group (free-Veh), a nano-bruceantin-treated group (nano-BCT), and a bruceantin-treated group (free-BCT). The nano-BCT group and the free-BCT group were orally administered nano-bruceantin and bruceantin, respectively, at 2 mg/kg every two days for 19 days. Thereafter, tumor volume and bioluminescence were measured for each treated group.

AR/AR-V7 [10] = conditions: castration-resistant prostate cancer cell line 22RV1 cells; KR 10-2020-0139625; cited from earlier work
AR/AR-V7 [11] = conditions: androgen-dependent LNCaP cells; KR 10-2020-0139625; cited from earlier work

Which results are given for `COC(=O)[C@@]12OC[C@]34[C@H]([C@@H](O)[C@@H]1O)[C@@]1(C)CC(=O)C(O)=C(C)[C@@H]1C[C@H]3OC(=O)[C@H](OC(=O)/C=C(\C)C(C)C)[C@@H]24` [bruceantin]?
solubility [1]: < 100 µg/mL; side effects upon short-term oral administration (nude mice [2]): accompanied by acute side effects such as exophthalmos, sudden death, and weight loss; side effects upon long-term oral administration (nude mice [3]): accompanied by side effects such as exophthalmos, sudden death, and weight loss; cell growth inhibitory effect, compared between groups (22RV1 cells [4]): similar; colony formation, compared between groups (22RV1 cells [5]): no significant difference; AR transcriptional activity (reporter gene), compared between groups (AR [6]): no significant difference; AR-V7 transcriptional activity (reporter gene), compared between groups (AR-V7 [7]): no significant difference; AR protein (immunoblotting) (AR [8]): decreased; AR-V7 protein (immunoblotting) (AR-V7 [9]): decreased; tumor volume (CWR22RV1; FIG. 9): decrease in tumor volume was from day 13; bioluminescence (CWR22RV1; FIG. 10): decrease in bioluminescence; transcriptional activity of AR/AR-V7 (AR/AR-V7 [10]): simultaneously and strongly inhibit; transcriptional activity of AR/AR-V7 (AR/AR-V7 [11]): simultaneously and strongly inhibit
